From patent US5444082A, “3,9-disubstituted-spiro(5.5)undecanes active on the cardiovascular system, process for their preparation and pharmaceutical composition containing same” (Sigma-Tau Industrie Farmaceutiche Riunite S.p.A., priority 1992, dated 1995) come the findings set out here.

Assay [1] concerns the target T1, Na^+,K^+ -ATPase (Homo sapiens, UniProt P05023).
T1 construct: receptor purified according to Jorgensen (Jorgensen P., BBA, 1974,356, 36); from tissue
The experiment in a line: displacement of the specific 3H-ouabain binding from the purified Na+,K+-ATPase receptor. The settings on record: read-out: Binding ^3 H-Ouab. Displacement log. IC50 (converted). From the text: (§1) To test the affinity for the receptor site of the Na^+,K^+ -ATPase and the agonist or antagonist activity on the enzyme, the following tests are used: a) displacement of the specific 3-Houabain binding from the Na^+,K^+ -ATPase receptor purified according to Jorgensen (Jorgensen P., BBA, 1974,356, 36) and Erdmann (L. Brown and E. Erdmann., Arzneim. Forsh., 1984, 34 (II), 1314); b) inhibition of the activity of the purified Na^+,K^+ -ATPase measured as % of hydrolysis of ^32 P-ATP in presence and in absence of the tested compound (F. Noel and Godfraind., Biochem. Pharmacol., 1984, 33, 47).

Assay [2] deals with T1, Na^+,K^+ -ATPase. The experiment in a line: inhibition of the activity of the purified Na+,K+-ATPase, measured as % of hydrolysis of 32P-ATP. The settings on record: read-out: Inhibitory Activity log IC50 (converted). In kind it is biochemical.
From the text: as §1

The term IC50 denotes the concentration needed to halve the response being measured.

Each structure is given as a SMILES string.

Take `c1cc(CC2CCC3(CCC(COCCN4CCCC4)CC3)CC2)co1` (stereo not shown) [Comp. I-j, 9-(2-(N-Pyrrolidinyl)ethoxy)methyl-3-(3-furyl)methyl-spiro[5.5]undecane]: the IC50 was 7.94 µM at Na^+,K^+ -ATPase [1] and 50.1 µM at Na^+,K^+ -ATPase [2].
For `c1cncc(CCC2CCC3(CC2)CCC(OCCN2CCCC2)CC3)c1` (stereo not shown) [Comp. I-h, 9-(2-(N-Pyrrolidinyl)ethoxy)-3-(2-(3-pyridyl)ethyl)-spiro[5.5]undecane] the same measures were 25.1 µM and 100 µM.
In the case of `C(=CC1CCC2(CC1)CCC(OCCN1CCCC1)CC2)c1ccoc1` (mixture of isomers) [Comp. I-a, (EZ)-9-(2(N-Pyrrolidinyl)ethoxy)-3-(2-(3-furyl)vinyl)-spiro[5.5]undecane], the IC50 was 79.4 µM on Na^+,K^+ -ATPase [1] and 25.1 µM at Na^+,K^+ -ATPase [2].
For `N=C(N)NN=CC1CCC2(CCC(O)CC2)CC1` (stereo not shown) [Comp. I-az, 9-Hydroxy-3-guanidinoiminomethyl-spirol[5.5]undecane] the same measures were 15.8 µM and 63.1 µM.
For `O=C1OCC=C1CCC1CCC2(CC1)CCC(OCCN1CCCC1)CC2` (stereo not shown) [Comp. 1-bg, 9-(2-(N-pyrrolidinyl)ethoxy)-3-(2-(2-oxo-[5H]-3-furyl)ethyl)-spiro[5.5]undecane] the same measures were 100 µM and 100 µM.
In the case of `c1cc(CC2CCC3(CCC(COCCCN4CCCC4)CC3)CC2)co1` (stereo not shown) [Comp. I-r, 9-(3-(N-Pyrrolidinyl)propoxy)methyl-3-(3-furyl)-methyl-spiro[5.5]undecane], the figures for the IC50 at Na^+,K^+ -ATPase [1] and on Na^+,K^+ -ATPase [2] were 31.6 µM and 12.6 µM, respectively.
For `OC(COC1CCC2(CCC(CCc3ccoc3)CC2)CC1)CN1CCCC1` (stereo not shown) [Comp. I-t, 9-(3-(N-Pyrrolidinyl)-2-hydroxypropoxy)-3-(2-(3-furyl)ethyl)-spiro[5.5]undecane] the same measures were 100 µM and 50.1 µM.
For `N=C(N)NN=C1CCC2(CC1)CCC(CO)CC2` (stereo not shown) [Comp. I-ay, 9-Hydroxymethyl-3-guanidinoimino-spiro[5.5]undecane] the same measures were 25.1 µM and 100 µM.
For `c1cc(CCC2CCC3(CC2)CCC(OCCCN2CCCC2)CC3)co1` (stereo not shown) [Comp. I-m] the same measures were 31.6 µM and 50.1 µM.
Consider `NCCSCC1CCC2(CC1)CCC(Cc1ccoc1)CC2` (stereo not shown) [Comp. 1-be, 9-(2-Aminoethylthiomethyl)-3-(3-furyl)methyl-spiro[5.5]undecane], for which the IC50 on Na^+,K^+ -ATPase [1] is 10 µM; at Na^+,K^+ -ATPase [2] it was 15.8 µM.
`OC1(Cc2ccoc2)CCC2(CCC(COCCN3CCCC3)CC2)CC1` (stereo not shown) [Comp. I-ab, 9-(2-(N-Pyrrolidinyl)ethoxy)methyl-3-(3-furyl)meth-yl-3-hydroxy-spiro[5.5]undecane]: the half-maximal inhibitory concentration (IC50) on Na^+,K^+ -ATPase [1] and at Na^+,K^+ -ATPase [2] was 15.8 µM throughout.
Take `c1cc(CCC2CCC3(CC2)CCC(OCCN2CCCC2)CC3)co1` (stereo not shown) [Comp. I-g, 9-(2-(N-Pyrrolidinyl)ethoxy)-3-(2-(3-furyl)ethyl)-spiro[5.5]undecane]: the IC50 was 12.6 µM at Na^+,K^+ -ATPase [1] and 15.8 µM at Na^+,K^+ -ATPase [2].
Consider `NC(CO)COC1CCC2(CCC(CCc3ccoc3)CC2)CC1` (stereo not shown) [Comp. I-u, 9-(2-Amino-3-hydroxypropoxy)-3-(2-(3-furyl)ethyl)-spiro[5.5]undecane], for which the half-inhibitory concentration (IC50) on Na^+,K^+ -ATPase [1] and on Na^+,K^+ -ATPase [2] was 50.1 µM throughout.
Turning to `O=C1C=C(CCC2CCC3(CC2)CCC(OCCN2CCCC2)CC3)CO1` (stereo not shown) [Comp. I-bh, 9-(2-(N-Pyrrolidinyl)ethoxy)-3-(2-(2-oxo-[5H]-4-furyl)-ethyl)-spiro[5.5]undecane], the figures for the half-inhibitory concentration (IC50) at Na^+,K^+ -ATPase [1] and on Na^+,K^+ -ATPase [2] were 63.1 µM and 100 µM, respectively.
As for `c1cc(CC2CCC3(CCC(CSCCN4CCCC4)CC3)CC2)co1` (stereo not shown) [Comp. I-bf, 9-(2-(N-Pyrrolidinyl)ethyl-thiomethyl)-3-(3-furyl)methyl-spiro[5.5]undecane], the half-maximal inhibitory concentration (IC50) at Na^+,K^+ -ATPase [1] is 39.8 µM; on Na^+,K^+ -ATPase [2], 100 µM.
With `OC1(CCc2ccoc2)CCC2(CCC(OCCN3CCCC3)CC2)CC1` (stereo not shown) [Comp. I-x, 9.(2-(N-pyrrolidinyl)ethoxy)-3-(2-(3-furyl)ethyl)-3-hydroxy-spiro[5.5]undecane], the 50% inhibitory concentration (IC50) on Na^+,K^+ -ATPase [1] and at Na^+,K^+ -ATPase [2] was 100 µM in each case.
Turning to `C1CCN(CCOC2CCC3(CCC(CCC4CCOC4)CC3)CC2)C1` (racemic) [Comp. 1-i, (RS)-9-(2-(N-Pyrrolidinyl)ethoxy)-3-(2-(3-(RS)-tetra-hydrofuryl)ethyl)-spiro[5.5]undecane], the half-inhibitory concentration (IC50) on Na^+,K^+ -ATPase [1] and on Na^+,K^+ -ATPase [2] was 100 µM throughout.
